How the values were obtained:
HDAC = conditions: in vitro or in vivo; cited from earlier work
[1] = molecular target: cytochrome oxidase (Complex IV) (Homo sapiens, UniProt P00395); conditions: cited from earlier work
Sir2 = Sir2 (Saccharomyces cerevisiae, UniProt P06700); conditions: cited from earlier work
retinal ganglion cells = conditions: treated animals; cited from earlier work
insulin resistant cells = conditions: cited from earlier work
C. elegans = conditions: in vivo; cited from earlier work
[2] = Dilution of liquid resveratrol formulations with purified water (precipitation); type: physicochemical; conditions: DS dissolved in Gelucire 44/14 at 100 mg/g
Method: A liquid formulation was prepared by dissolving resveratrol (drug substance, DS) and monoacyl phospholipid in a mixture of PEG 300 and propyleneglycol. The ratio between the DS and phospholipid was 1/12 w/w in PEG 300/propyleneglycol 1/1 w/was solvent mixture. The formulation, which has a 5% drug load, was clear after dilution in purified water for more than 4 hours. Starting from Formulation 13, the drug load was increased to 10% using the same 1/1 w/w ratio of Vit E TPGS/DS and replacing propyleneglycol with Labrasol™. Upon one-fold dilution with water a slight DS precipitation was observed. […] After a few hours, some oil droplets were visible on the surface of the water phase. To further improve Formulation 11, the use of the two lipids Gelucire™ 44/14 and Labrasol™ were explored as main components in the formulations. […] The DS precipitated in the form of oil-like droplets. […] Higher drug loads can be achieved by using the two lipids in combination with ethanol as additional solvent/excipient to fully solubilize the drug in the formulation.

mammalian cells = conditions: cited from earlier work
[3] = topical; cited from earlier work

Sir2, sequence (P06700 whole entry): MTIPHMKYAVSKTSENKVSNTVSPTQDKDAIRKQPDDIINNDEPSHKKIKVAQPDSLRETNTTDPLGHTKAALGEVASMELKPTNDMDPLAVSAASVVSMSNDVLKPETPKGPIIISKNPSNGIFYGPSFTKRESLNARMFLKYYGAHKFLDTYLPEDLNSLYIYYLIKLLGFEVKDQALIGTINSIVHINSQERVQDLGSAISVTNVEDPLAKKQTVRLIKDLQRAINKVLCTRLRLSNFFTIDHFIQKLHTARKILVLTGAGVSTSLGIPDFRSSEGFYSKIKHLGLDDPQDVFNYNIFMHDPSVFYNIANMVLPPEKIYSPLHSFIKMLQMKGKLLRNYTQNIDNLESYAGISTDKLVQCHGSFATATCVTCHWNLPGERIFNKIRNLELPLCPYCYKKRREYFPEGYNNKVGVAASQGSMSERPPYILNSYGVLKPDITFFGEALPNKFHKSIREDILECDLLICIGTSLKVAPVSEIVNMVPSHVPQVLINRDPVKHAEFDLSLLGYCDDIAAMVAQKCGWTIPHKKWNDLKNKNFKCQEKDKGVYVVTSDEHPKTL

In the case of `O=C(/C=C/c1cccc(C(=O)NO)c1)NO` [CBHA, m-carboxy-cinnamic acid bishydroxamic acid], the “inhibition of HDAC (concentration level in words)” value (from here on “inhibition of HDAC”) (HDAC) is listed as “micromolar concentration or lower”.
For `C/C=C1\NC(=O)[C@H]2CSSCC/C=C/[C@H](CC(=O)N[C@H](C(C)C)C(=O)N2)OC(=O)[C@H](C(C)C)NC1=O` [Depsipeptide, depsipeptide], the “inhibition of HDAC” value (HDAC) is given as “micromolar concentrations”.
In the case of `[N]=O` [Nitric oxide], the “concentration that inhibits cytochrome oxidase (Complex IV)” value [1] is listed as “about 1 micromolar”.
In the case of `CC(/C=C/C(=O)NO)=C\[C@@H](C)C(=O)c1ccc(N(C)C)cc1` [TSA, trichostatin A], the “inhibition of HDAC” value (HDAC) is given as “potent inhibitor” and the “sensitivity of Sir2 to histone deacetylase inhibitors” value (Sir2) is given as “insensitive”.
For `N=C(N)NN` [aminoguanidine], the “loss of retinal ganglion cells” value (retinal ganglion cells) is given as “reduction in the loss of retinal ganglion cells”.
For `Oc1ccc(/C=C/c2cc(O)cc(O)c2)cc1` [resveratrol, 3,5,4′-trihydroxystilbene], the “insulin sensitivity in insulin resistant cells” value (insulin resistant cells) is listed as “at least partially restore insulin sensitivity”, the “fat accumulation in C. elegans” value (C. elegans) is listed as “prevent fat accumulation” and the “fat mobilization in C. elegans” value (C. elegans) is listed as “promotes fat mobilization”. For the same compound, the “precipitation after dilution with purified water” value [2] was “precipitated in a fast manner”, the “adipogenesis in mammalian cells” value (mammalian cells) was “inhibit adipogenesis” and the “fat mobilization in mammalian cells” value (mammalian cells) was “stimulate fat mobilization”.
For `CC(C)(C)NC[C@H](O)COc1nsnc1N1CCOCC1` [timolol], the “time for IOP to fall” value [3] is listed as 30 min and the “time of peak effects on IOP” value [3] is listed as 1 to 2 h.
For depudecin, the “inhibition of HDAC” value (HDAC) is listed as “micromolar concentrations”.
